# According to patent US20220363709A1, “ECTONU[…] METHODS OF USE THEREOF” (priority 2019, published 2022):
# Target: T1, recombinant CD73 (Homo sapiens, UniProt P21589)
# T1 construct: purchased R&D Systems 5795-EN-010
# T1 sequence (P21589 27-547 limits assumed): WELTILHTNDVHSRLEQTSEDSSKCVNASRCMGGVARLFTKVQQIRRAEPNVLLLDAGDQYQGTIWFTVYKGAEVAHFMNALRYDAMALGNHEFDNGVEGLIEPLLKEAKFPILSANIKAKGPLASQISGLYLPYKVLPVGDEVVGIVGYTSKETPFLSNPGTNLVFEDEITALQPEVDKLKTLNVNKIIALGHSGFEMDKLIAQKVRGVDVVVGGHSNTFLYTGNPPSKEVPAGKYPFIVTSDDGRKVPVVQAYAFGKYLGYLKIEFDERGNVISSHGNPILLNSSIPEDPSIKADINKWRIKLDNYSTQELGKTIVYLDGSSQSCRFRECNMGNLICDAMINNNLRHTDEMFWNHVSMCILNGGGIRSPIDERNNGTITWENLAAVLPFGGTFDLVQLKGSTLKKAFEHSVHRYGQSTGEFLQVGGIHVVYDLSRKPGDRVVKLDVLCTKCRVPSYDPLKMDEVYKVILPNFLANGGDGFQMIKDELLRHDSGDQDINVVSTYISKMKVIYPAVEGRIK
# Experiment: Assay 1: Inhibition of the CD73 Enzyme In Vitro
# Assay type: biochemical
# Conditions: soluble recombinant CD73 0.5 nM, AMP 50 μM, 30 minutes at room temperature, Malachite Green, absorbance at 630 nm; read-out: Assay 1 CD73 IC50
# Procedure: Serial dilutions of test compounds were incubated with recombinant CD73 and AMP in reaction buffer (25 mM Tris HCl pH7.5, 5 mM MgCl2, 50 mM NaCl, 0.25 mM DTT, 0.005% Triton X-100). The final reaction volume was 25 μL and the final concentrations of recombinant CD73 and AMP were 0.5 nM and 50 μM, respectively. […] After 5 minutes at room temperature, absorbance at 630 nm was determined on a microplate spectrophotometer. The concentration of inorganic phosphate was determined using a phosphate standard curve.
# ND indicates not determined.
row,Compound,IC50
1,"Nc1nc(Cl)nc2c1ncn2[C@@H]1O[C@H](COC(Cc2ccccc2)(C(=O)O)c2cscn2)[C@@H](O)[C@H]1O (mixture of isomers) [Example 26, 2-(((2R,3S,4R,5R)-5-(6-amino-2-chloro-9H-purin-9-yl)-3,4-dihydroxytetrahydrofuran-2-yl)methoxy)-3-phenyl-2-(thiazol-4-yl)propanoic acid]",400 nM
2,"Nc1nc(Cl)nc2c1ncn2[C@@H]1O[C@H](COC(Cc2ccc(-c3ccccc3)cc2)(C(=O)O)c2csc(Cl)n2)[C@@H](O)[C@H]1O (mixture of isomers) [Example 27, 3-([1,1′-biphenyl]-4-yl)-2-(((2R,3S,4R,5R)-5-(6-amino-2-chloro-9H-purin-9-yl)-3,4-dihydroxytetrahydrofuran-2-yl)methoxy)-2-(2-chlorothiazol-4-yl)propanoic acid]",106 nM
3,"Nc1nc(Cl)nc2c1ncn2[C@@H]1O[C@H](COC(Cc2ccccc2)(C(=O)O)c2cc[nH]n2)[C@@H](O)[C@H]1O (mixture of isomers) [Example 32, 2-(((2R,3S,4R,5R)-5-(6-amino-2-chloro-9H-purin-9-yl)-3,4-dihydroxytetrahydrofuran-2-yl)methoxy)-3-phenyl-2-(1H-pyrazol-3-yl)propanoic acid]",2060 nM
4,"Cc1cc(C(Cc2ccccc2)(OC[C@H]2O[C@@H](n3cnc4c(N)nc(Cl)nc43)[C@H](O)[C@@H]2O)C(=O)O)no1 (mixture of isomers) [Example 37, 2-(((2R,3S,4R,5R)-5-(6-amino-2-chloro-9H-purin-9-yl)-3,4-dihydroxytetrahydrofuran-2-yl)methoxy)-2-(5-methylisoxazol-3-yl)-3-phenylpropanoic acid]",8730 nM
5,"CNS(=O)(=O)c1ccccc1-c1ccc(CC(OC[C@H]2O[C@@H](n3cnc4c(N)nc(Cl)nc43)[C@H](O)[C@@H]2O)(C(=O)O)c2cscn2)cc1 (mixture of isomers) [Example 38, 2-(((2R,3S,4R,5R)-5-(6-amino-2-chloro-9H-purin-9-yl)-3,4-dihydroxytetrahydrofuran-2-yl)methoxy)-3-(2′-(N-methylsulfamoyl)-[1,1′-biphenyl]-4-yl)-2-(thiazol-4-yl)propanoic acid]",42 nM
6,"CCN(CC)C(=O)c1ccccc1-c1ccc(CC(OC[C@H]2O[C@@H](n3cnc4c(N)nc(Cl)nc43)[C@H](O)[C@@H]2O)(C(=O)O)c2cscn2)cc1 (mixture of isomers) [Example 45, 2-(((2R,3S,4R,5R)-5-(6-amino-2-chloro-9H-purin-9-yl)-3,4-dihydroxytetrahydrofuran-2-yl)methoxy)-3-(2′-(diethylcarbamoyl)-[1,1′-biphenyl]-4-yl)-2-(thiazol-4-yl)propanoic acid]",833 nM
7,"Nc1nc(Cl)nc2c1ncn2[C@@H]1O[C@H](COC(Cc2ccc(-c3ccccc3C(=O)O)cc2)(C(=O)O)c2ccsc2)[C@@H](O)[C@H]1O (mixture of isomers) [Example 49, 4′-(2-(((2R,3S,4R,5R)-5-(6-amino-2-chloro-9H-purin-9-yl)-3,4-dihydroxytetrahydrofuran-2-yl)methoxy)-2-carboxy-2-(thiophen-3-yl)ethyl)-[1,1′-biphenyl]-2-carboxylic acid]",2270 nM
8,"Nc1nc(Cl)nc2c1ncn2[C@@H]1O[C@H](CO[C@](Cc2ccc(-c3ccc(C(=O)O)cc3)cc2)(C(=O)O)c2cscn2)[C@@H](O)[C@H]1O (single isomer, unassigned) [Example 2]",64 nM
9,"Nc1nc(Cl)nc2c1ncn2[C@@H]1O[C@H](CO[C@@](Cc2ccc(-c3ccc(C(=O)O)cc3)cc2)(C(=O)O)c2cscn2)[C@@H](O)[C@H]1O (single isomer, unassigned) [Example 3]",1250 nM
10,"N#CCc1ccccc1-c1ccc(C[C@@](OC[C@H]2O[C@@H](n3cnc4c(N)nc(Cl)nc43)[C@H](O)[C@@H]2O)(C(=O)O)c2cscn2)cc1 (single isomer, unassigned) [Example 4]",35 nM
11,"N#CCc1ccccc1-c1ccc(C[C@](OC[C@H]2O[C@@H](n3cnc4c(N)nc(Cl)nc43)[C@H](O)[C@@H]2O)(C(=O)O)c2cscn2)cc1 (single isomer, unassigned) [Example 5]",502 nM
12,"Nc1nc(Cl)nc2c1ncn2[C@@H]1O[C@H](CO[C@](Cc2ccc(-c3ccccc3CC(=O)O)cc2)(C(=O)O)c2cscn2)[C@@H](O)[C@H]1O (single isomer, unassigned) [Example 6]",39 nM
13,"Nc1nc(Cl)nc2c1ncn2[C@@H]1O[C@H](CO[C@@](Cc2ccc(-c3ccccc3CC(=O)O)cc2)(C(=O)O)c2cscn2)[C@@H](O)[C@H]1O (single isomer, unassigned) [Example 7]",1030 nM
14,"Nc1nc(Cl)nc2c1ncn2[C@@H]1O[C@H](CO[C@](Cc2ccc(-c3ccccc3)cc2)(C(=O)O)c2cscn2)[C@@H](O)[C@@H]1F (single isomer, unassigned) [Example 8]",241 nM
15,"Nc1nc(Cl)nc2c1ncn2[C@@H]1O[C@H](CO[C@@](Cc2ccc(-c3ccccc3)cc2)(C(=O)O)c2cscn2)[C@@H](O)[C@@H]1F (single isomer, unassigned) [Example 9]",2640 nM
16,"Nc1nc(Cl)nc2c1ncn2[C@@H]1O[C@H](CO[C@](Cc2ccc(-c3ccc(C(=O)O)cc3)cc2)(C(=O)O)c2cscn2)[C@@H](O)[C@@H]1F (single isomer, unassigned) [Example 10]",227 nM

row,Compound,IC50
1,"Nc1nc(Cl)nc2c1ncn2[C@@H]1O[C@H](CO[C@@](Cc2ccc(-c3ccc(C(=O)O)cc3)cc2)(C(=O)O)c2cscn2)[C@@H](O)[C@@H]1F (single isomer, unassigned) [Example 11]",1530 nM
2,"Nc1nc(Cl)nc2c1ncn2[C@@H]1O[C@H](CO[C@](Cc2ccc(C(=O)O)cc2)(C(=O)O)c2cscn2)[C@@H](O)[C@@H]1F (single isomer, unassigned) [Example 15]",296 nM
3,"Nc1nc(Cl)nc2c1ncn2[C@@H]1O[C@H](CO[C@@](Cc2ccc(C(=O)O)cc2)(C(=O)O)c2cscn2)[C@@H](O)[C@@H]1F (single isomer, unassigned) [Example 16]",4870 nM
4,"COc1ncccc1-c1ccc(C[C@@](OC[C@H]2O[C@@H](n3cnc4c(N)nc(Cl)nc43)[C@@H](F)[C@@H]2O)(C(=O)O)c2cscn2)cc1 (single isomer, unassigned) [Example 19]",170 nM
5,"COc1ncccc1-c1ccc(C[C@](OC[C@H]2O[C@@H](n3cnc4c(N)nc(Cl)nc43)[C@@H](F)[C@@H]2O)(C(=O)O)c2cscn2)cc1 (single isomer, unassigned) [Example 20]",2750 nM
6,"Nc1nc(Cl)nc2c1ncn2[C@@H]1O[C@H](CO[C@](Cc2ccc(-c3ccc[nH]c3=O)cc2)(C(=O)O)c2cscn2)[C@@H](O)[C@@H]1F (single isomer, unassigned) [Example 21]",47 nM
7,"Nc1nc(Cl)nc2c1ncn2[C@@H]1O[C@H](CO[C@@](Cc2ccc(-c3ccc[nH]c3=O)cc2)(C(=O)O)c2cscn2)[C@@H](O)[C@@H]1F (single isomer, unassigned) [Example 22]",2980 nM
8,"Cc1nc([C@](Cc2ccc(-c3ccccc3)cc2)(OC[C@H]2O[C@@H](n3cnc4c(N)nc(Cl)nc43)[C@H](O)[C@@H]2O)C(=O)O)cs1 (single isomer, unassigned) [Example 28]",90 nM
9,"Cc1nc([C@@](Cc2ccc(-c3ccccc3)cc2)(OC[C@H]2O[C@@H](n3cnc4c(N)nc(Cl)nc43)[C@H](O)[C@@H]2O)C(=O)O)cs1 (single isomer, unassigned) [Example 29]",3220 nM
10,"Nc1nc([C@](Cc2ccccc2)(OC[C@H]2O[C@@H](n3cnc4c(N)nc(Cl)nc43)[C@H](O)[C@@H]2O)C(=O)O)cs1 (single isomer, unassigned) [Example 30]",342 nM
11,"Nc1nc([C@@](Cc2ccccc2)(OC[C@H]2O[C@@H](n3cnc4c(N)nc(Cl)nc43)[C@H](O)[C@@H]2O)C(=O)O)cs1 (single isomer, unassigned) [Example 31]",1970 nM
12,"Nc1nc(Cl)nc2c1ncn2[C@@H]1O[C@H](CO[C@](Cc2ccccc2)(C(=O)O)c2cocn2)[C@@H](O)[C@H]1O (single isomer, unassigned) [Example 35]",290 nM
13,"Nc1nc(Cl)nc2c1ncn2[C@@H]1O[C@H](CO[C@@](Cc2ccccc2)(C(=O)O)c2cocn2)[C@@H](O)[C@H]1O (single isomer, unassigned) [Example 36]",6260 nM
14,"COc1cccc(CO)c1-c1ccc(C[C@@](OC[C@H]2O[C@@H](n3cnc4c(N)nc(Cl)nc43)[C@H](O)[C@@H]2O)(C(=O)O)c2cscn2)cc1 (single isomer, unassigned) [Example 39]",68 nM
15,"COc1cccc(CO)c1-c1ccc(C[C@](OC[C@H]2O[C@@H](n3cnc4c(N)nc(Cl)nc43)[C@H](O)[C@@H]2O)(C(=O)O)c2cscn2)cc1 (single isomer, unassigned) [Example 40]",2230 nM
16,"CS(=O)(=O)Nc1ccccc1-c1ccc(C[C@@](OC[C@H]2O[C@@H](n3cnc4c(N)nc(Cl)nc43)[C@H](O)[C@@H]2O)(C(=O)O)c2cscn2)cc1 (single isomer, unassigned) [Example 41]",43 nM
